Source: patent US9809602B2, “Compounds for treating viral infections” (INSTITUT PASTEUR KOREA, priority 2014, dated 2017)

System: genotype 1/2 chimeric cell culture derived HCV (HCVcc)
Assay: Genotype 1/2 chimeric HCVcc assay (nano-luciferase, HCV replication)
Type: cell-based
Details: Hepatitis C virus
Procedure, shortened: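 EC50 (replication, nano-luciferase) and CC50 (viability, cellular ATP) were determined by non-linear regression 72 h after infection with a reporter HCVcc chimera carrying genotype 1a structural and 2a JFH-1 non-structural proteins. Compound was applied to Huh-7.5 cells 2 h before inoculation.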

SMILES	EC50 [µM]
CC(C)(C)OC(=O)N1CCC(C2CCN(CCCNC(=O)c3ccc(Oc4ccccc4)cc3)CC2)CC1 [Compound 1073]	0.1 to 1
O=C(NCCCN1CCC(N2CCCCC2)CC1)c1ccc2oc3ccccc3c2c1 [Compound 1074]	1 to 10
O=C(Nc1cccc(CN2CCC(N3CCCCC3)CC2)c1)c1ccc(Oc2ccccc2)cc1 [Compound 1075]	0.1 to 1
O=C(NC/C=C/CN1CCC(N2CCCCC2)CC1)c1ccc(Oc2ccccc2)cc1 [Compound 1076]	0.1 to 1
O=C(NCCOCCN1CCC(N2CCCCC2)CC1)c1ccc(Oc2ccccc2)cc1 [Compound 1077]	1 to 10
O=C(CCCN1CCC(N2CCCCC2)CC1)Nc1ccc(Oc2ccc(C(F)(F)F)cc2)cc1 [Compound 1078]	0.1 to 1
O=C(NCCCN1CCC(NC2CCCCC2)CC1)c1ccc(Oc2ccccc2)cc1 [Compound 1079]	0.1 to 1
O=C(NCCCN1CCC(N2CCCCC2)CC1)c1ccc(-c2ccc(C(F)(F)F)cc2)nc1 [Compound 1080]	0.1 to 1
O=C(NCCCN1CCC(N2CCCCC2)CC1)c1ccc(-c2ccc(C(F)(F)F)cc2)s1 [Compound 1081]	0.1 to 1
O=C(NCCCN1CCC(N2CCCCC2)CC1)c1cc(-c2ccc(C(F)(F)F)cc2)cs1 [Compound 1082]	0.1 to 1
O=C(NCCCN1CCC(N2CCCCC2)CC1)c1ccc(-c2ccc(C(F)(F)F)cc2)o1 [Compound 1083]	0.1 to 1
O=C(NCCCN1CCC(N2CCCCC2)C1)c1ccc(Oc2ccccc2)cc1 (stereo not shown) [Compound 1084]	> 10
O=C(NCCCN1CCC(N2CCCCC2)CC1)c1ccc(-c2ccc(C(F)(F)F)cc2)c(Cl)c1 [Compound 1085]	0.1 to 1
O=C(CCCN1CCC(N2CCCCC2)CC1)Nc1ccc(-c2ccc(C(F)(F)F)cc2)cc1 [Compound 1086]	0.1 to 1
O=C(NCCCCCN1CCC(N2CCCCC2)CC1)c1ccc(Oc2ccccc2)cc1 [Compound 1087]	0.1 to 1
O=C(NCCCCCCN1CCC(N2CCCCC2)CC1)c1ccc(Oc2ccccc2)cc1 [Compound 1088]	0.1 to 1
O=C(c1ccc(Oc2ccccc2)cc1)N1CCC(CN2CCC(N3CCCCC3)CC2)C1 (stereo not shown) [Compound 1089]	1 to 10
O=S(=O)(NCCCN1CCC(N2CCCCC2)CC1)c1ccc(-c2ccccc2)cc1 [Compound 1090]	0.1 to 1
O=S(=O)(NCCCCN1CCC(N2CCCCC2)CC1)c1ccc(-c2ccccc2)cc1 [Compound 1091]	0.1 to 1
O=S(=O)(NCCCN1CCC(N2CCCCC2)CC1)c1ccc(-c2ccc(OC(F)(F)F)cc2)cc1 [Compound 1092]	0.1 to 1
O=S(=O)(NCCCN1CCC(N2CCCCC2)CC1)c1ccc(-c2ccc(C(F)(F)F)cc2)cc1 [Compound 1093]	0.1 to 1
O=S(=O)(NCCCN1CCC(N2CCCCC2)CC1)c1ccc(Oc2ccc(C(F)(F)F)cc2)cc1 [Compound 1094]	0.1 to 1
O=S(=O)(NCCCCN1CCC(N2CCCCC2)CC1)c1ccc(-c2ccc(C(F)(F)F)cc2)cc1 [Compound 1095]	0.1 to 1
O=S(=O)(NCCCN1CCC(N2CCCCC2)CC1)c1ccc(-c2ccc(F)cc2)cc1 [Compound 1096]	0.1 to 1
COc1ccc(-c2ccc(S(=O)(=O)NCCCN3CCC(N4CCCCC4)CC3)cc2)cc1 [Compound 1097]	0.1 to 1
Cc1ccc(-c2ccc(S(=O)(=O)NCCCN3CCC(N4CCCCC4)CC3)cc2)cc1 [Compound 1098]	0.1 to 1

SMILES	EC50 [µM]
O=S(=O)(NCCCN1CCC(N2CCCCC2)CC1)c1ccc(-c2ccc(Cl)cc2)cc1 [Compound 1099]	0.1 to 1
O=C(NCCCN1CCC(N2CCCCC2)CC1)c1ccc(-c2ccc(C(F)(F)F)cn2)cc1 [Compound 1100]	0.1 to 1
O=C(NCCCN1CCC(N2CCCCC2)CC1)c1ccc(-c2ccc(C(F)(F)F)nc2)cc1 [Compound 1101]	0.1 to 1
O=C(NCCCN1CCC(N2CCCCC2)CC1)c1ccc(-c2ccc(C(F)(F)F)cc2)cn1 [Compound 1102]	0.1 to 1
Cc1cc(NCCCN2CCC(N3CCCCC3)CC2)n2nc(-c3ccccc3)cc2n1 [Compound 1103]	1 to 10
O=C(NCCCN1CCC(N2CCCCC2)CC1)c1ccc(-c2ccc(C(F)(F)F)cc2)cc1C(F)(F)F [Compound 1104]	0.1 to 1
O=C(NCCCN1CCC(N2CCCCC2)CC1)c1ccc(-c2ccc(C(F)(F)F)cc2)c(C(F)(F)F)c1 [Compound 1105]	0.1 to 1
O=C(NCCCN1CCC(N2CCCCC2)CC1)c1c(F)cc(-c2ccc(C(F)(F)F)cc2)cc1F [Compound 1106]	0.1 to 1
O=C(NCCCN1CCC(N2CCCCC2)CC1)c1cccc(Oc2cccc(C(F)(F)F)c2)c1 [Compound 1107]	0.1 to 1
O=C(NCCCN1CCC(N2CCCCC2)CC1)c1ccc(Oc2cccc(C(F)(F)F)c2)cc1 [Compound 1108]	0.1 to 1
O=C(NCCCN1CCC(N2CCCCC2)CC1)c1ccc(Oc2ccc(Cl)cc2)cc1 [Compound 1109]	1 to 10
CN(C)c1ccc(Oc2ccc(C(=O)NCCCN3CCC(N4CCCCC4)CC3)cc2)cc1 [Compound 1110]	0.1 to 1
O=C(NCCCN1CCC(N2CCCCC2)CC1)c1ccc(Oc2ccc(C(F)(F)F)cc2)cc1 [Compound 1111]	0.1 to 1
O=C(NCCCN1CCC(N2CCCCC2)CC1)c1ccc(-c2ccc(C(F)(F)F)cc2)cc1Cl [Compound 1112]	0.1 to 1
O=C(CCCN1CCC(N2CCCCC2)CC1)Nc1ccc(-c2ccc(C(F)(F)F)cc2)c(F)c1 [Compound 1113]	0.1 to 1
O=C(CCCN1CCC(N2CCCCC2)CC1)Nc1ccc(-c2ccc(C(F)(F)F)cc2)cc1F [Compound 1114]	0.1 to 1
COc1cc(C(=O)NCCCN2CCC(N3CCCCC3)CC2)ccc1-c1ccc(C(F)(F)F)cc1 [Compound 1115]	0.1 to 1
O=C(CCCN1CCC(N2CCCCC2)CC1)Nc1ccc(-c2ccc(C(F)(F)F)cc2)nc1 [Compound 1116]	0.1 to 1
O=C(NC/C=C/CN1CCC(N2CCCCC2)CC1)c1ccc(-c2ccc(C(F)(F)F)cc2)cc1 [Compound 1117]	0.1 to 1
O=C(NCCCN1CCC(N2CCCCC2)CC1)Nc1ccc(-c2ccc(C(F)(F)F)cc2)cc1 [Compound 1118]	0.1 to 1
O=C(NCCCN1CCC(N2CCCCC2)CC1)c1ccc(-c2ccc(OC(F)(F)F)cc2)cc1 [Compound 1119]	0.1 to 1
CN(C)C(=O)c1ccc(-c2ccc(C(=O)NCCCN3CCC(N4CCCCC4)CC3)cc2)cc1 [Compound 1120]	> 10
O=C(NCCCN1CCC(N2CCCCC2)CC1)c1ccc(-c2ccc3cc[nH]c3c2)cc1 [Compound 1121]	0.1 to 1
O=C(NCCCN1CCC(N2CCCCC2)CC1)c1ccc(-c2ccc([N+](=O)[O-])cc2)cc1 [Compound 1122]	0.1 to 1
O=C(NCCCN1CCC(N2CCCCC2)CC1)c1ccc(-c2ccc(N3CCOCC3)cc2)cc1 [Compound 1123]	0.1 to 1
CC(C)(C)c1ccc(-c2ccc(C(=O)NCCCN3CCC(N4CCCCC4)CC3)cc2)cc1 [Compound 1124]	0.1 to 1

SMILES	EC50 [µM]
CN(C)c1ccc(-c2ccc(C(=O)NCCCN3CCC(N4CCCCC4)CC3)cc2)cc1 [Compound 1125]	0.1 to 1
O=C(NCCCN1CCC(N2CCCCC2)CC1)c1ccc(-c2ccc3occc3c2)cc1 [Compound 1126]	0.1 to 1
O=C(NCCCN1CCC(N2CCCCC2)CC1)c1ccc(-c2ccc(O)cc2)cc1 [Compound 1127]	1 to 10
NS(=O)(=O)c1ccc(-c2ccc(C(=O)NCCCN3CCC(N4CCCCC4)CC3)cc2)cc1 [Compound 1128]	> 10
NC(=O)c1ccc(-c2ccc(C(=O)NCCCN3CCC(N4CCCCC4)CC3)cc2)cc1 [Compound 1129]	> 10
O=C(NCCCN1CCC(N2CCCCC2)CC1)c1ccc(-c2ccc3c(c2)OCO3)cc1 [Compound 1130]	0.1 to 1
COc1ccc(-c2ccc(C(=O)NCCCN3CCC(N4CCCCC4)CC3)cc2)c(F)c1 [Compound 1131]	0.1 to 1
O=C(NCCCN1CCC(N2CCCCC2)CC1)c1ccc(-c2ccc(F)cc2Cl)cc1 [Compound 1132]	0.1 to 1
O=C(NCCCN1CCC(N2CCCCC2)CC1)c1ccc(-c2ccc(F)cc2C(F)(F)F)cc1 [Compound 1133]	0.1 to 1
O=C(NCCCN1CCC(N2CCCCC2)CC1)c1ccc(-c2ccc(F)cc2F)cc1 [Compound 1134]	0.1 to 1
Cc1ccc(-c2ccc(C(=O)NCCCN3CCC(N4CCCCC4)CC3)cc2)c(F)c1 [Compound 1135]	0.1 to 1
O=C(NCCCN1CCC(N2CCCCC2)CC1)c1ccc(-c2ccc(Cl)cc2C(F)(F)F)cc1 [Compound 1136]	0.1 to 1
O=C(NCCCN1CCC(N2CCCCC2)CC1)c1ccc(-c2ccc(C(F)(F)F)s2)cc1 [Compound 1137]	0.1 to 1
O=C(NCCCN1CCC(N2CCCCC2)CC1)c1ccc(-c2ccc(CN3CCOCC3)cc2)cc1 [Compound 1138]	1 to 10
CC(C)(C)OC(=O)c1ccc(-c2ccc(C(=O)NCCCN3CCC(N4CCCCC4)CC3)cc2)cc1 [Compound 1139]	0.1 to 1
CC(=O)Nc1ccc(-c2ccc(C(=O)NCCCN3CCC(N4CCCCC4)CC3)cc2)cc1 [Compound 1140]	> 10
O=C(NCCCN1CCC(N2CCCCC2)CC1)c1ccc(-c2cccc(Cl)c2)cc1 [Compound 1141]	0.1 to 1
O=C(NCCCN1CCC(N2CCCCC2)CC1)c1ccc(-c2cccc(N3CCOCC3)c2)cc1 [Compound 1142]	1 to 10
O=C(NCCCN1CCC(N2CCCCC2)CC1)c1ccc(-c2cccc(CN3CCOCC3)c2)cc1 [Compound 1143]	1 to 10
O=C(NCCCN1CCC(N2CCCCC2)CC1)c1ccc(-c2ccc(S(=O)(=O)N3CCOCC3)cc2)cc1 [Compound 1144]	1 to 10
O=C(NCCCN1CCC(N2CCCCC2)CC1)c1ccc(-c2cccc(OC(F)(F)F)c2)cc1 [Compound 1145]	0.1 to 1
O=C(NCCCN1CCC(N2CCCCC2)CC1)c1ccc(-c2ccccc2Cl)cc1 [Compound 1146]	0.1 to 1
O=C(NCCCN1CCC(N2CCCCC2)CC1)c1ccc(-c2cccc([N+](=O)[O-])c2)cc1 [Compound 1147]	0.1 to 1
O=C(NCCCN1CCC(N2CCCCC2)CC1)c1ccc(-c2ccc(CO)cc2)cc1 [Compound 1148]	> 10
